Experimental data: patent US5834461A, “Tricyclic benzazepine vasopressin antagonists” (American Cyanamid Company, priority 1997, dated 1998)

Target: T1, human V2 vasopressin receptor (Homo sapiens, UniProt P30518)
T1 construct: expressed in transfected cells; host or cells: mouse fibroblast cell line LV-2
Test: Binding to Membranes of Mouse Fibroblast Cell Line (LV-2) Transfected with the cDNA Expressing the Human V2 Vasopressin Receptor
Details: LV-2 cells
Description: Flasks of 175 ml capacity, containing attached cells grown to confluence, are cleared of culture medium by aspiration. The flasks containing the attached cells are rinsed with 2×5 ml of phosphate buffered saline (PBS) and the liquid aspirated off each time. Finally, 5 ml of an enzyme free dissociation Hank's based solution (Specialty Media, Inc., Lafayette, N.J.) is added and the flasks are left undisturbed for 2 min. The content of all flasks is poured into a centrifuge tube and the cells pelleted at 300×g for 15 min. The Hank's based solution is aspirated off and the cells homogenized with a polytron at setting #6 for 10 sec in 10.0 mM Tris.HCl buffer, pH 7.4 containing 0.25M sucrose and 1.0 mM EDTA. The homogenate is centrifuged at 1500×g for 10 min to remove ghost membranes. The supernatant fluid is centrifuged at 100,000×g for 60 min to pellet the receptor protein. Upon completion, the pellet is resuspended in a small volume of 50.0 mM Tris.HCl buffer, pH 7.4. The protein content is determined by the Lowry method and the receptor membranes are suspended in 50.0 mM Tris.HCl buffer containing 0.1 mM phenylmethylsulfonylfluoride (PMSF) and 0.2% bovine serum albumin (BSA) to give 2.5 mg receptor protein per ml of suspension.
For binding experiments, the following is added in μl volume to wells of a 96 well format of a microtiter plate: 100.0 μl of 100.0 mM Tris.HCl buffer containing 0.2% heat inactivated BSA, 10.0 mM MgCl2 and a mixture of protease inhibitors: leupeptin, 1.0 mg %; aprotinin, 1.0 mg %; 1,10-phenanthroline, 2.0 mg %; trypsin inhibitor, 10.0 mg % and 0.1 mM PMSF., 20.0 μl of [^3 H] Arginine^8, vasopressin (S.A. 75.0 Ci/mmole) at 0.8 nM and the reaction initiated by the addition of 80.0 μl of tissue membranes ([…]).
The plates are left undisturbed on the bench top for 120 min to reach equilibrium. Non specific binding is assessed in the presence of 1.0 μM of unlabeled ligand, added in 20 μl volume. For test compounds, these are solubilized in 50% dimethylsulfoxide (DMSO) and added in 20.0 μl volume to a final incubation volume of 200 μl. Upon completion of binding, the content of each well is filtered off, using a Brandel® cell Harvester (Gaithersburg, Md.). The radioactivity trapped on the filter disk by the ligand-receptor complex is assessed by liquid scintillation counting in a Packard LS Counter, with an efficiency of 65% for tritium.

T1 sequence (P30518 whole entry): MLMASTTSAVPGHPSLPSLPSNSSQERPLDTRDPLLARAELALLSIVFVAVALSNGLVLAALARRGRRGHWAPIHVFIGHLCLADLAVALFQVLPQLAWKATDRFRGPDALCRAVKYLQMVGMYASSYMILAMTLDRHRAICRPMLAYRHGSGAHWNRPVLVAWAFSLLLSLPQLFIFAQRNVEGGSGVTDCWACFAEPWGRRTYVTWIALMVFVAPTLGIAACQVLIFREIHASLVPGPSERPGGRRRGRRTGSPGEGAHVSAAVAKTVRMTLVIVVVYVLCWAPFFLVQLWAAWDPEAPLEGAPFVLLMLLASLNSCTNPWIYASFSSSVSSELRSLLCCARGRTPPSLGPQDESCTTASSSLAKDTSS

With `Cc1c(F)cccc1C(=O)Nc1ccc(C(=O)N2Cc3ccccc3Cc3ccccc32)cc1Cl` [Example 262, N-[4-[(6,11-Dihydro-5H-dibenz[b,e]azepin-5-yl)-carbonyl]-2-chlorophenyl]-2-methyl-3-fluorobenzamide] the IC50 was 250 nM.
Molecule `Cc1ccc(F)cc1C(=O)Nc1ccc(C(=O)N2CCc3c[nH]nc3-c3ccccc32)c(Cl)c1` [Example 581] has an IC50 of 2.2 nM.
`Cc1nc2c(s1)CCN(C(=O)c1ccc(NC(=O)c3ccc(Cl)cc3Cl)cc1)c1ccccc1-2` [Example 455, N-[4-(4,5-Dihydro-2-methyl-6H-thiazolo[5,4-d][1]-benzazepin-6-yl)carbonyl1phenyl]-2,4-dichlorobenzamide] was tested, and the IC50 was 100 nM.
`COc1cc(C(=O)N2Cc3ccccc3Cc3ccccc32)ccc1NC(=O)c1ccc(Cl)cc1Cl` [Example 263, N-[4-[(6,11-Dihydro-5H-dibenz[b,e]azepin-5-yl)-carbonyl]-2-methoxyphenyl]-2,4-dichlorobenzamide] was tested, and the IC50 was 47 nM.
For `COc1cc(C(=O)N2Cc3ccccc3Cc3ccccc32)ccc1NC(=O)c1cc(F)ccc1C` [Example 261, N-[4-[(6,11-Dihydro-5H-dibenz[b,e]azepin-5-yl)-carbonyl]-2-methoxyphenyl]-2-methyl-5-fluorobenzamide], the IC50 was 16 nM.
`COc1cc(C(=O)N2Cc3ccccc3Cc3ccccc32)ccc1NC(=O)c1ccccc1C` [Example 257, N-[4-[(6,11-Dihydro-5H-dibenz[b,e]azepin-5-yl)-carbonyl]-2-methoxyphenyl]-2-methylbenzamide] gave an IC50 of 20 nM.
With `Cc1nc2c(s1)CCN(C(=O)c1ccc(NC(=O)c3cc(F)ccc3C)cc1)c1ccccc1-2` [Example 534] the IC50 was 73 nM.
